# Results from patent US20040019060A1, “Sigma receptor ligands and their medical uses” (priority 2000, published 2004).
# Counter-ions that a name gives are not always drawn. Like-named read-outs stand apart in the source and are kept apart here.
# What was measured:
# [1] = system: endothelial cells; experiment: Endothelial cell proliferation assay (cell phosphatase activity); format: cell-based, human; details: Homo sapiens, Endothelial cell
# Description: (§1) HUVECS (human umbilical vein endothelial cells) obtained from TCS Biologicals were grown in TCS Biologicals Large Vessel Endothelial Cell Basal Medium (ZHM-2951) with supplement (ZHS-8945). This contains heparin, hydrocortisone, human EGF, human bFGF (concentrations not disclosed by the Company) with added 2% FCS, pH 7.4.
# HMEC-1 (immortalised human microvascular endothelial cells) obtained from Dr Colin Porter, Chester Beatty Laboratories were grown in TCS Biologicals Microvascular Endothelial Cell Basal Medium (ZHM-2946) with supplement (ZHS-8947). This contains heparin, hydrocortisone, human EGF, human bFGF, dibutyryl cyclic AMP (concentrations not disclosed by the Company) with added 5% FCS, pH 7.4.
# HDMECS (human dermal microvascular endothelial cells) obtained from TCS Biologicals were grown in TCS Biologicals Microvascular Endothelial Cell Basal Medium (ZHM-2946) with supplement (ZHS-8947). This contains heparin, hydrocortisone, human EGF, human bFGF, dibutyryl cyclic AMP (concentrations not disclosed by the Company) with added 5% FCS, pH 7.4.
# (§2) The cells were seeded at 2×10^4 ml in 96 well microtitre plates on day 0, and sigma ligands were added in fresh medium on day 1. […] PCS at the concentrations indicated was present throughout the assay. Each concentration of drug was assayed in triplicate, and the vehicle concentration was kept constant.
# Viable cells present at the end of the assay were estimated by determining phosphatase activity as follows: 100Xl of paranitrophenylphosphate (Sigma) at 3 mg/ml in phosphate buffer pH 5.5 containing 0.1% Triton X100 was added to wells and incubated for 2hr at 37° C. The reaction was stopped with 1N NaOH. Released paranitrophenol, indicative of attached cell number, was measured by reading the absorbance at 405 nm in a Titertek multiscan. […] The 100% value is the mean absorbance of control wells treated with vehicle alone; the 0% value is that of wells containing medium only.
# [2] = target: sigma-1 sites (Homo sapiens, UniProt Q99720); details: Abou-Gharbia et al 1993; cited from earlier work
# [3] = system: sponge angiogenesis; experiment: Rat sponge angiogenesis model (125I albumin vascular volume); format: in vivo, CBH/cbi rats
# Description: In order to study neoangiogenesis in the absence of tumours, sterile polyether sponges were implanted into animals. This technique, developed in Cambridge, has been widely used to study angiogenesis. We have employed a triple radiotracer technique to study different aspects of the angiogenic process.
# CBH/cbi rats were implanted s.c. with sterile 13 mm diameter sponges as above. They were treated i.p. with Rimcazole (30 mg/kg/day) for 14 days from day 0. Five minutes before termination, they were injected with ^125I labelled rat albumin (a macromolecule which, in the short term remains intravascular). The amount of radioiodine in the sponges is an index of vascular volume.
# [4] = system: human vascular endothelial cells (HUVEC); experiment: Proliferation assay in HUVEC (phosphatase activity); format: cell-based; details: 168 h, read-out: IC50 (dose required to inhibit proliferation to 50% of control), FIG. 2b, assay on day 7
# Description: as §1, §2
# Viable cells present at the end of the assay were estimated by determining phosphatase activity as follows: 100Xl of paranitrophenylphosphate (Sigma) at 3 mg/ml in phosphate buffer pH 5.5 containing 0.1% Triton X100 was added to wells and incubated for 2hr at 37° C. The reaction was stopped with 1N NaOH. Released paranitrophenol, indicative of attached cell number, was measured by reading the absorbance at 405 nm in a Titertek multiscan. “Background” counts (which were very low) were subtracted, and the survival in drug treated wells compared with that of control wells. The 100% value is the mean absorbance of control wells treated with vehicle alone; the 0% value is that of wells containing medium only.
# [5] = system: Human mammary carcinoma (MDA MB 468) cells; experiment: MTS cell viability/proliferation assay, mammary carcinoma cells; format: cell-based
# Description: Human mammary carcinoma (MDA MB 468) cells were obtained from TCC, Manassas, Va., USA; catalogue number HTB-132; cells were grown in accordance with the manufacturer's instructions.
# (§3) Cell density was checked microscopically at time zero.
# [6] = system: Human adult dermal microvascular endothelial cells; experiment: MTS cell viability/proliferation assay, microvascular endothelial cells; details: Homo sapiens, Endothelial cell
# [7] = system: Human mammary epithelial cells; experiment: MTS cell viability/proliferation assay, mammary epithelial cells; format: cell-based; details: 10 micromolar, up to 48 hours, FIG. 9
# Text: (Tissue in all cases was from healthy donors). […] Primary cell types included:
# Human mammary epithelial cells (catalogue number CC-2551; stain positive for cytokeratins 14, 18 and 19).
# as §3
# Chain of sigma-1 sites (Q99720 whole entry): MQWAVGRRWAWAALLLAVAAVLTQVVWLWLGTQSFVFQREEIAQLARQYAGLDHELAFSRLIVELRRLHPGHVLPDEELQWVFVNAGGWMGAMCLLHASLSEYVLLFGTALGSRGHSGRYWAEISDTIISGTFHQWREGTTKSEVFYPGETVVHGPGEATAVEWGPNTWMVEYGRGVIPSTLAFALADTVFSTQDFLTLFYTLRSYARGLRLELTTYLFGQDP
smiles,measurement,setting,value
"C[C@@H]1CN(CCCn2c3ccccc3c3ccccc32)C[C@H](C)N1 [Rimcazole, cis-9-[3,5-dimethyl-1-piperazinyl) propyl]carbazole dihydrochloride]",activity at 4 µM,"[1]; 4 μM Rimcazole, read-out: Endothelial cell proliferation, % of control cells",< 50%
same,IC50,"[1]; concentration of drug required to inhibit survival and/or proliferation by 50%, read-out: Antagonists: IC50",5 µM
same,selectivity for sigma-1 compared to sigma-2 sites,[2],approximately 5 fold
same,Vascular volume of normal organs (liver and kidney),[3]; 30 mg/kg/day for 14 days,unaffected
same,"Neoangiogenesis in sponges (vascular volume, radiolabelled albumin)","[3]; 30 mg/kg/day for 14 days after implantation, FIG. 7b",reduced
same,IC50,[4],< 5 µM
same,Effect of sublethal concentration (MTS),"[5]; 5 micromolar, FIG. 10 bottom panel",cytostasis
same,Cell killing (MTS viability),"[5]; 10 micromolar, low passage cells, FIG. 9",no surviving cells remained after 24 hours
same,cytotoxicity at 10 µM,[6]; read-out: Reduction in viability,~80%
same,cytotoxicity at 10 µM,[6]; read-out: Reduction in viable cell numbers compared to baseline values,60 to 80%
same,Survival and proliferation (MTS),[7],continued to proliferate vigorously
